According to patent US20230364084A1, “METHODS FOR PREVENTING OR TREATING CONDITIONS RELATED TO PIKFYVE ACTIVITY” (The Regents of the University of Michigan, priority 2020, published 2023):

Assays:
[1] = system: DU145 cells; experiment: cellular vacuolization morphology with autophagy inhibitors; assay type: cell-based, human; settings: combination with ESK981, six hours
Text: The nature of the ESK981-associated cellular vacuolization was investigated in combination with various autophagic pathway inhibitors.

[2] = system: PC3 and DU145 cells; experiment: autophagic flux detection (GFP-LC3-RFP-LC3ΔG probe); assay type: cell-based, human; settings: PC3 or DU145 cells, 24 hours
Procedure: (§1) For autophagic flux detection, 10,000 cells were plated in 96-well plates and incubated with various compounds in complete medium for 24 hours. GFP and RFP fluorescence intensities were measured on a TECAN M1000 plate reader.

[3] = system: CXCL10 in VCaP cells; experiment: human CXCL10 ELISA of conditioned medium; assay type: cell-based; settings: VCaP cells, 24 hours
Procedure: Conditioned medium was collected after 24 hours of drug incubation. ELISA was performed using a human CXCL10 ELISA kit (Cat No. KAC2361, ThermoFisher), or a mouse CXCL10 ELISA kit (Cat No. ab214563, Abcam) according to the manufacturer's instructions.

[4] = system: B cell non-Hodgkin's lymphoma; settings: cited from earlier work
[5] = system: lysosomes in VCaP, LNCaP, PC3 and DU145 cells; experiment: LysoTracker Green flow cytometry; assay type: cell-based, human; settings: bafilomycin A1 100 nM with ESK981 300 nM, 24 hours
Procedure: Cells were grown in 6-well plates and treated with various drugs. After 24 hours, cells were stained with LysoTracker® Green DND-26 (Invitrogen), and green fluorescence signal was analyzed by flow cytometry.

[6] = system: GFP-LC3-RFP-LC3ΔG-expressing Myc-CaP cells; experiment: autophagic flux detection in Myc-CaP cells; assay type: cell-based, mouse; settings: 24 hours
Procedure: as §1

[7] = system: DU145 prostate cancer cells; experiment: cell viability screen with a 167-compound tyrosine kinase inhibitor library; assay type: cell-based, human; settings: 300 nM
Procedure: FIG. 1: ESK981 inhibits the growth of diverse preclinical models of prostate cancer and is associated with a unique vacuolization morphology. • (a) The percentage viabilities of DU145 cells treated with 300 nM ESK981 or 167 other tyrosine kinase inhibitors when compared to a vehicle control. The top five most inhibitory compounds, as well as cabozantinib and crizotinib (highlighted in orange), and their respective targets are listed in the table. ESK981 is highlighted in red. • (b) Morphological differences of nuclear-restricted RFP-expressing DU145 cells treated with 300 nM ESK981, crizotinib, or cabozantinib. • (c) A long-term survival assay was used to calculate the half-maximum inhibitory concentration (IC50) after two weeks of incubation with the serial dilutions of indicated drugs. (Top) Long-term survival assays of VCaP prostate cancer cells exposed to MTKIs. (Bottom) IC50 of ESK981, crizotinib, and cabozantinib in a panel of prostate cancer cell lines. • (d) ESK981 was effective against enzalutamide (Enza)-resistant cell lines. […] Long-term survival (two weeks) was assayed by absorbance of crystal violet at OD590. • (e) VCaP-RFP cells were cultured for three days in ultralow attachment plates to form 3D tumor spheroids prior to the indicated drug treatments. […] Fluorescence intensity of 3D spheroids was measured by IncuCyte ZOOM. • (f) Castration-resistant VCaP tumors were established subcutaneously in castrated SCID mice, and mice were randomized into three groups, which received vehicle, 30 mg/kg, or 60 mg/kg ESK981 by oral gavage once per day for the indicated dosing schedule. Tumor volumes were monitored by a digital caliper twice per week. Data were analyzed by unpaired t test and presented as mean±SEM. *p<0.05; **p<0.01. • (g) AR^+ prostate patient-derived xenograft (PDX) MDA-PCa-146-12 were implanted subcutaneously in non-castrated SCID mice, and mice were randomized into two groups receiving either once daily vehicle or 30 mg/kg ESK981 for five days each week. […] Tumor volumes were monitored twice per week. […]

[8] = system: prostate cancer cell lines (VCaP, LNCaP, 22RV1, LNCaP-AR, PC3, DU145); experiment: long-term survival assay (14 days, crystal violet); assay type: cell-based, human; settings: panel of prostate cancer cell lines, two weeks
Procedure: Single cell suspensions were seeded into 96-well plates at a density of 1,000-30,000 cells per well. Long-term survival was determined after 14 days of drug incubation. Viable cells were fixed with 4% formaldehyde and subsequently stained with 1% crystal violet. IC50 was calculated using GraphPad Prism.

[9] = system: LC3-II in prostate cancer cell lines; experiment: LC3 lipidation western blot; assay type: cell-based, human; settings: VCaP cells, 24 hours
Procedure: Cell lysates were harvested in Pierce RIPA Lysis buffer (Thermo Scientific) containing protease inhibitor cocktail tablets (Roche) and phosphatase inhibitor cocktail (Millipore). Protein concentration was measured using the DC Protein Assay (Bio-Rad) to ensure an equal amount of protein was loaded onto a gel. The denatured lysates were separated on NuPage 4-12% Bis-Tris Midi Protein gels (Novex) and transferred to 0.45-μm PVDF transfer membrane (Immobilon) using a TransBlot Turbo dry transfer machine (Bio-Rad). The membrane was incubated in blocking buffer (5% non-fat dry milk, Tris-buffered saline with 0.1% Tween 20) for 1 hour at room temperature. The membrane was then incubated with the listed antibodies for 1 hour at room temperature, followed by overnight incubation at 4° C. Chemiluminescent detection using ECL Prime (Amersham) and HyBlot CL autoradiography film (Denville Scientific) was used to visualize the blots. Antibodies used in the immunoblotting assays were against ATG5 (Cat No. 12994S, Cell Signaling Technology), ATG7 (Cat No. 8558S, Cell Signaling Technology), ULK1 (Cat No. 8054S, Cell Signaling Technology), Beclin1 (Cat No. 4122S, Cell Signaling Technology), FIP200 (Cat No. 12436S, Cell Signaling Technology), LC3A/B (Cat No. 127415, Cell Signaling Technology), PIKfyve (Cat No. AF7885, R&D Systems), and GAPDH (Cat No. 3683S, Cell Signaling Technology).

[10] = system: advanced prostate cancer; settings: two phase III trials; cited from earlier work
[11] = system: metastatic CRPC (mCRPC); settings: men with metastatic CRPC; cited from earlier work

With `Cn1cnc(N)c2ncnc1-2` [3-methyladenine] the “effect on the cellular vacuolization effects of ESK981” value (shortened to “effect … of ESK981”) [1] was “partially negated”.

For `CCC(=O)N1CCN(c2ccc(-n3c(=O)ccc4cnc5ccc(-c6cnc7ccccc7c6)cc5c43)cc2C(F)(F)F)CC1` [Torin1], the “autophagic flux (GFP/RFP ratio)” value [2] was “decreased the GFP/RFP ratio” and the “CXCL10 induction / secretion” value [3] was “marginally increased CXCL10 secretion, but only at higher concentrations”.

For `Cc1cccc(/C=N/Nc2cc(N3CCOCC3)nc(OCCc3ccccn3)n2)c1` [apilimod], the tumor inhibition [4] is listed as “tumor inhibitory effects”.

With `CO/C1=C\C(C)=C\[C@@H](C)[C@@H](O)[C@@H](C)C/C(C)=C/C=C/[C@H](OC)[C@@H]([C@@H](C)[C@@H](O)[C@H](C)[C@@]2(O)C[C@@H](O)[C@H](C)[C@@H](C(C)C)O2)OC1=O` [bafilomycin A1] the “effect … of ESK981” value [1] was “completely blocked”, the “effect on the ESK981-increased lysosome quantity” value [5] was “readily neutralized” and the “autophagic flux (GFP/RFP ratio)” value [2] was “low autophagic flux”. For the same compound, the autophagic flux [6] was “inhibited”.

In the case of `CCN(CC)CCCC(C)Nc1ccnc2cc(Cl)ccc12` (centres unmarked) [chloroquine], the “effect … of ESK981” value [1] is reported as “completely blocked” and the autophagic flux [6] is reported as “inhibited”.

For `C[C@@H](Oc1cc(-c2cnn(C3CCNCC3)c2)cnc1N)c1c(Cl)ccc(F)c1Cl` [crizotinib, reference compound], the “growth inhibition (cell viability)” value [7] was “no such growth inhibitory effects”, the IC50 in words [8] was “micromolar” and the “induction of LC3-II” value ([9]; 300 nM) was “did not induce an increase in LC3-II”. The “induction of LC3-II” value ([9]; 1 μM) was “only weakly induced an increase in LC3-II”.

For `Nc1ccn([C@@H]2O[C@H](CO)[C@@H](O)C2(F)F)c(=O)n1` [gemcitabine], the “CXCL10 induction / secretion” value [3] was “robust CXCL10 inducer”.

For ipilimumab: CTLA4 inhibitor, the overall survival [10] is given as “failed to improve overall survival”.

For pembrolizumab: PD-1 inhibitor, the response rates [11] is listed as 3-5%.
